Columns and labels:
[1] = target: T1, human PPAR-γ-ligand binding domain (LBD) (Homo sapiens, UniProt P37231); experiment: GAL4-PPAR-γ-LBD luciferase reporter assay in BE(2)C cells; assay type: cell-based; settings: various concentrations up to 50 μM, 20 hours, FIGS. 1A and 1B
T1 construct: expressed in transfected cells; host or cells: BE(2)C cells
T1 sequence (P37231 238-503 limits assumed): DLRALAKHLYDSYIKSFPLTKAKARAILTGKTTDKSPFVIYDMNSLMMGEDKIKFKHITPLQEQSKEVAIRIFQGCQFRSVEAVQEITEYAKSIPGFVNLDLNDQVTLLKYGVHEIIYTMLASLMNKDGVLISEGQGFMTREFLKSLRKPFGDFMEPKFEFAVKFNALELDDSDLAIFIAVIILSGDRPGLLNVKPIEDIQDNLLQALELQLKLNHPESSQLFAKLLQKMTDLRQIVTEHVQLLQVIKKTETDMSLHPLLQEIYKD
Protocol: (§1) To examine whether amodiaquine serves as a ligand of PPAR-γ or PPAR-α, three types of vectors were used.
(§2) The activation of luciferase expression was detected 6 hours after BE(2)C cells were transformed with a GAL4-PPAR-γ-LBD plasmid or GAL4-PPAR-α-LBD plasmid, the GAL4-luciferase vector and the β-galactosidase vector, and growing amodiaquine-treated cells for 20 hours in a 5% CO2 incubator.

[2] = system: high fat-induced obesity mice; experiment: Intraperitoneal insulin tolerance test (IPITT) in high fat-induced obesity mice; assay type: in vivo, mouse; settings: 0.5 U/kg insulin i.p.; for blood glucose concentration after 2 hours (IPITT): HFD with simultaneous substance, FIG. 7B; for time of lowest blood glucose level (IPITT): substance given after long-term HFD induction, FIG. 7C
Protocol: After 16-hour fasting, 0.5 U/kg of insulin was intraperitoneally administered to each animal in the controls and the experimental group, and a blood glucose concentration was measured every 30 minutes for 2 hours. For measurement of the blood glucose concentration, an IPITT was used.

[3] = system: high fat-induced obesity mice; experiment: Oral glucose tolerance test (OGTT) in high fat-induced obesity mice; assay type: in vivo, mouse; settings: HFD mice with amodiaquine; 2 g/kg glucose oral after 16-hour fasting; HFD control 180.5 mg/dl; FIG. 7A
Protocol: After 16-hour fasting, 2 g/kg of glucose was orally administered to each animal in the controls and experimental group, and a blood glucose concentration was measured every 30 minutes for 2 hours. For measurement of the blood glucose concentration, an OGTT was used.

[4] = system: KKAy mice; experiment: Fasting blood glucose in KKAy mice; assay type: in vivo, mouse; settings: 18 mg/kg daily oral for 6 weeks, control 132.4 mg/dl
Protocol: (§3) Following one-week acclimation, 5-week-old KKAy mice purchased from Saeronbio Inc. were divided into two groups of 5.
(§4) The first group was set as a negative control by administering PBS, and the second group was treated by daily oral administration of amodiaquine at 18 mg/kg for 6 weeks.
(§5) Fasting blood glucose was measured for 6 weeks from whole blood taken from the caudal vein of each mouse 1, 2, 5 and 6 weeks after 12-hour fasting. For blood glucose measurement, a blood glucose strip (Green Cross, Gyeonggi-do, Korea) was used. […] In addition, to identify the blood glucose regulation effect, 2 g/kg of glucose was intraperitoneally injected into the mice of the control and experimental group after 16-hour fasting, and the level of blood glucose was measured every 30 minutes for 2 hours. For measurement of the blood glucose concentration, an intraperitoneal glucose tolerance test (IPGTT) was used.

[5] = target: T2, PPAR-α-LBD (Homo sapiens, UniProt Q07869); experiment: GAL4-PPAR-α-LBD luciferase reporter assay in BE(2)C cells; assay type: cell-based; settings: various concentrations up to 50 μM, 20 hours, FIGS. 1C and 1D
T2 construct: expressed in transfected cells; host or cells: BE(2)C cells
T2 sequence (Q07869 239-466 limits assumed): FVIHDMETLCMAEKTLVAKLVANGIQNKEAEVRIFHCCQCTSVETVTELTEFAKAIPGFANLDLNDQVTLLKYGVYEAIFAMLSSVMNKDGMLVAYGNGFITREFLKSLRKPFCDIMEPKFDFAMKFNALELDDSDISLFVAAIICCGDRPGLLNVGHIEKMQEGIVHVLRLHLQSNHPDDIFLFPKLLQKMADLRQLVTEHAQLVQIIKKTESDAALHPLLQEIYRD
Protocol: as §1, §2

[6] = Body weight of high fat-induced obesity mice; assay type: in vivo, mouse; settings: C57BL/6 mice, amodiaquine 20 mg/kg
Protocol: The mice were divided into groups of 7, freely fed water and diets in a cage, and then acclimated for 1 week before an experiment. […] [table] […] An average body weight was calculated by dividing the sum of weights of 7 mice per group by the number of mice.

[7] = system: KKAy mice; experiment: Glycated hemoglobin (HbA1C) content in KKAy mice; assay type: in vivo, mouse; settings: 18 mg/kg daily oral for 6 weeks, FIG. 4
Protocol: To detect a change in glycated hemoglobin content in mice by amodiaquine, after 1-week acclimation, 5-week-old KKAy mice were purchased from Saeronbio Inc. were divided into two groups of 5. Like in Example 3, the first group of mice were set as a control by administering PBS, and the second group was treated by daily oral administration of amodiaquine at 18 mg/kg for 6 weeks using a 1 ml syringe. To detect an effect of amodiaquine on reducing glycated hemoglobin content, whole blood was taken from the caudal vein of each mouse in the control and experimental group, injected into an easy A1c cartridge, and then assessed using an easy A1c analyzer (Asan Pharmaceutical Co., Ltd., Seoul, Korea). An independent group t-test was performed on the experimental group and the control to identify significance in the test results, and a statistically significant difference was shown (**p<0.005).

[8] = system: KKAy mice; experiment: Intraperitoneal glucose tolerance test (IPGTT) in KKAy mice; assay type: in vivo, mouse; settings: 18 mg/kg daily oral for 6 weeks, 2 g/kg glucose i.p. after 16-hour fasting, control 293.2 mg/dl
Protocol: as §3, §4, §5

[9] = system: C2C12 myotube cells; experiment: Glucose uptake ([3H]2-DOG) evaluation test in C2C12 myotube cells; assay type: cell-based, mouse; settings: C2C12 myotubes, 10 and 30 μM amodiaquine for 24 hours, compared with 50 μM rosiglitazone; FIG. 2
Protocol: Phosphorylation of insulin receptors occurs due to signal transduction by insulin in muscle, adipose or liver cells, and therefore when various proteins located downstream are phosphorylated, glucose uptake increases resulting in reduced blood glucose. A glucose uptake evaluation test was performed to identify whether amodiaquine is effective in diabetes. C2C12 myoblasts, which are muscle cells, were cultured in 10% […]-containing DMEM. When the cell density reached approximately 80 to 90%, the medium was replaced with fresh 2% horse serum-containing DMEM, and cell differentiation of the C2C12 myoblasts to myotubes was induced to make them completely differentiated, followed by carrying out an experiment. […] Washing was repeated three times every twenty minutes. Subsequently, 1 ml of KRP buffer was injected, a solution (0.2 mM, 0.2 μCi) prepared by dissolving unlabeled 2-DOG and [^3H]2-DOG (Amersham Pharmacia) in KRP buffer was added at 37° C. to allow treatment for exactly 10 minutes. The resulting cells were washed with 3 ml of cold phosphate buffered saline (PBS) to stop a glucose uptake reaction, further washed twice with PBS, air-dried for approximately 1 hour, and lyzed with 1 ml of 0.1% SDS by pipetting, and then 300 μl of the lysate was obtained to detect radioactivity using a liquid scintillation counter (Perkin Elmer, USA).

[10] = system: high fat-induced obesity mouse; experiment: 4° C. cold test (thermal production) in high fat-induced obesity mice; assay type: in vivo; settings: HFD mice, 14 weeks, amodiaquine 20 mg/kg; 4° C. for up to 6 hours; versus high fat obesity-induced mouse; FIG. 6
Protocol: To measure a thermal production capability with respect to mice fed a high fat diet for 14 weeks among the experimental animals designed in Example 5, a 4° C. cold test was performed (Spiegelman B. M. et al., Cell 92: 829-839, 1998). Hereinafter, the measurement method will be described in detail. A body temperature of mice in the high fat-induced obesity mouse groups was measured before being exposed to 4° C. and recorded as a test start temperature, and then the mice were exposed to 4° C. for up to 6 hours, followed by measuring a body temperature. The body temperature was measured using a rectal thermometer for a mouse (testo 925, Germany) A thermal production value indicated a temperature measured every hour.

[11] = system: liver of the high fat-induced obesity mouse; experiment: Fatty liver histology (hematoxylin-eosin) in high fat-induced obesity mice; assay type: in vivo; settings: HFD with amodiaquine for 14 weeks; FIG. 8
Protocol: Among the experimental animals designed in Example 5, mice in the high fat-induced obesity mouse group fed a high fat diet for 14 weeks were sacrificed by cervical spine dislocation, fixed on a dissection stand, and subjected to abdominal dissection with a scalpel to extract the liver. The extracted liver tissue was fixed in a 10% formalin solution to prevent contracted deformation. After the fixed tissue was washed with running water after 24 hours, general tissue dehydration, clearing and impregnation were performed using an automatic tissue processor (6460B, Sakura, Japan) for 14 hours, and manufacture of paraffin blocks and cooling were performed using an automated embedding device (Tissue-Tex, Japan). The manufactured paraffin blocks were continuously sliced to a thickness of 4 to 5 μm in a vertical direction of the tissue using a rotary microtome 2040 (Japan), and attached to slides after processing using a water bath and a slide warming table. The thin tissue section was stained with hematoxylin, an excessively-stained part was washed with running tap water, and then the resulting section was dipped in 1% HCl and a 70% A/C solution 3 to 5 times to stain the nuclei blue. […]

| Compound | PPAR-γ activity (luciferase expression) [1] | blood glucose concentration after 2 hours (IPITT) [2] | PPAR-α activity (luciferase expression) [5] | time of lowest blood glucose level (IPITT) [2] [min] | also measured |
| --- | --- | --- | --- | --- | --- |
| Cc1cccc(Nc2cc(Cl)nc(SCC(=O)O)n2)c1C [WY-14,643] | PPAR-γ activity was not shown | maintained lower than the fasting blood glucose concentration | – | – | – |
| CCN(CC)Cc1cc(Nc2ccnc3cc(Cl)ccc23)ccc1O [amodiaquine, 4-[(7-chloroquinolin-4-yl)amino]-2-[(diethylamino)methyl]phenol] | higher concentration-dependent PPAR-γ activity | maintained lower than the fasting blood glucose concentration | high concentration-dependent PPAR-α activity | 30 | blood glucose concentration 2 hours after glucose loading (OGTT) [3]: 139.1 mg/dL; fasting blood glucose concentration [4]: 100.2 mg/dL; body weight versus high fat-induced obesity mouse (prevention) ([6]; HFD with substance for 14 weeks, FIG. 5A): significantly lower than that of the high fat-induced obesity mouse; body weight versus high fat-induced obesity mouse (treatment) ([6]; substance for 7 weeks after 15-week HFD induction, rosiglitazone 50 mg/kg, FIG. 5C): significantly lower than that of the high fat-induced obesity mouse; production of glycated hemoglobin relative to the control mice [7]: ~69%; blood glucose concentration 2 hours after glucose loading (IPGTT) [8]: 207 mg/dL; glucose uptake [9]: further increased than that in the rosiglitazone-treated group; body temperature on exposure to 4° C. (thermal production) [10]: less decreased in body temperature; liver appearance (fat accumulation, hematoxylin-eosin) [11]: almost the same appearance as that of a normal mouse |
| CCN(CC)CCCC(C)Nc1ccnc2cc(Cl)ccc12 (stereo not drawn) [chloroquine, 7-chloro-4-(4-diethylamino-1-methylbutylamino)quinoline] | PPAR-γ activity was not shown | – | did not show the PPAR-α activity | – | – |
| CN(CCOc1ccc(CC2SC(=O)NC2=O)cc1)c1ccccn1 (stereo not drawn) [rosiglitazone] | – | – | – | 60 | – |
